Laboratory results reported in ChEMBL document CHEMBL1153839, “Pulmonary versus systemic delivery of antibiotics: comparison of vancomycin dispositions in the isolated rat lung” (Antimicrob Agents Chemother, 2007).

How the values were obtained:
[1] = AUC (0 to infinity) in Wistar rat lung at 500 ug, administered through systemic route under respiratory mode of 60 respirations per minute, 2 ml/kg tidal volume; type: ADME; set-up: dose 500 ug, time infinity
[2] = Ratio of drug level in bronchoalveolar fluid to lung in Wistar rat at 500 ug, administered through pulmonary route under respiratory mode of 30 respirations per minute, 4 ml/kg tidal volume; type: ADME; details: in vivo, inhaled_or_intranasal
[3] = Ratio of drug level in lung to efferent fluid in Wistar rat at 500 ug, administered through systemic route under respiratory mode of 60 respirations per minute, 2 ml/kg tidal volume; type: ADME; details: in vivo, other
[4] = Ratio of drug level in lung to efferent fluid in Wistar rat at 500 ug, administered through pulmonary route under respiratory mode of 30 respirations per minute, 4 ml/kg tidal volume; type: ADME; details: in vivo, inhaled_or_intranasal
Lung [5] = assay: Mean transit time in Wistar rat lung at 500 ug, administered through systemic route under respiratory mode of 60 respirations per minute, 2 ml/kg tidal volume; type: ADME, tissue-based; details: in vivo, other
[6] = Ratio of drug level in lung to efferent fluid in Wistar rat at 500 ug, administered through systemic route under respiratory mode of 30 respirations per minute, 4 ml/kg tidal volume; type: ADME; details: in vivo, other
Lung [7] = assay: Drug level in Wistar rat lung at 500 ug, administered through systemic route; type: ADME, tissue-based; details: in vivo
[8] = Ratio of drug level in lung to efferent fluid in Wistar rat at 500 ug, administered through pulmonary route under respiratory mode of 60 respirations per minute, 2 ml/kg tidal volume; type: ADME; details: in vivo, inhaled_or_intranasal
[9] = Ratio of drug level in bronchoalveolar fluid to lung in Wistar rat at 500 ug, administered through pulmonary route under respiratory mode of 60 respirations per minute, 2 ml/kg tidal volume; type: ADME; details: in vivo, other
[10] = Drug level in Wistar rat bronchoalveolar fluid at 500 ug, administered through systemic route; type: ADME, tissue-based, Lung; details: in vivo
[11] = Ratio of drug level in bronchoalveolar fluid to efferent fluid in Wistar rat at 500 ug, administered through pulmonary route under respiratory mode of 60 respirations per minute, 2 ml/kg tidal volume; type: ADME; details: in vivo, inhaled_or_intranasal
[12] = AUC (0 to infinity) in Wistar rat lung at 500 ug, administered through systemic route under respiratory mode of 30 respirations per minute, 4 ml/kg tidal volume; type: ADME; set-up: dose 500 ug, time infinity
Lung [13] = assay: Mean transit time in Wistar rat lung at 500 ug, administered through systemic route under respiratory mode of 30 respirations per minute, 4 ml/kg tidal volume; type: ADME, tissue-based; details: in vivo, other
[14] = Ratio of drug level in bronchoalveolar fluid to efferent fluid in Wistar rat at 500 ug, administered through pulmonary route under respiratory mode of 30 respirations per minute, 4 ml/kg tidal volume; type: ADME; details: in vivo, inhaled_or_intranasal

For `CN[C@H](CC(C)C)C(=O)N[C@H]1C(=O)N[C@@H](CC(N)=O)C(=O)N[C@H]2C(=O)N[C@H]3C(=O)N[C@H](C(=O)N[C@H](C(=O)O)c4cc(O)cc(O)c4-c4cc3ccc4O)[C@H](O)c3ccc(c(Cl)c3)Oc3cc2cc(c3O[C@@H]2O[C@H](CO)[C@@H](O)[C@H](O)[C@H]2O[C@H]2C[C@](C)(N)[C@H](O)[C@H](C)O2)Oc2ccc(cc2Cl)[C@H]1O` [VANCOMYCIN], the AUC(0-inf) [1] was 1830 ng·h/mL, the Ratio [2] was 7.1 and the Ratio [3] was 0.49. For the same compound, the Ratio [4] was 9.44, the MTT (Lung [5]) was 0.47 min and the Ratio [6] was 0.5. For the same compound, the Drug uptake (Lung [7]) was 0.11 µg/g, the Ratio [8] was greater than 9.44 and the Ratio [9] was 4.69. The Drug uptake [10] was 0.1 µg/g, the Ratio [11] was greater than 17.89 and the AUC(0-inf) [12] was 2140 ng·h/mL. For the same compound, the MTT (Lung [13]) was 0.78 min and the Ratio [14] was 17.89.
